Experimental data as given in publication PMC8248988, “A signal capture and proofreading mechanism for the KDEL-receptor explains selectivity and dynamic range in ER retrieval” (eLife, 2021).

Test system: endogenous KDEL receptor in COS-7 cells
Assay: ER retrieval assay, endogenous KDEL receptor redistribution
Type: cell-based, African green monkey
Excerpt: Figure 1. ER retrieval signal abundance and affinity are not correlated. (a) Sequence logos for ER resident proteins with C-terminal KDEL retrieval signals and variants thereof calculated using frequency or protein abundance ([Itzhak et al., 2017]; [Itzhak et al., 2016]). (b) Combined cellular concentrations of ER resident proteins with canonical KDEL, RDEL, and HDEL retrieval sequences in HeLa cells and mouse brain. (c) Competition binding assays for [^3H]-TAEHDEL and unlabelled TAEKDEL, TAERDEL, and TAEHDEL to the KDEL receptor. IC50 values for the competing peptides were used to calculate the apparent KDwith the Cheng-Prusoff equation ([Cheng and Prusoff, 1973]). (d) Endogenous KDEL receptor redistribution was measured in COS-7 cells in the absence (-ligand) or presence of K/R/H/A/DDEL (mScarlet-xDEL^sec). TGN46 was used as a Golgi marker. Scale bar is 10 µm. (e) The mean difference for K/R/H/A/DDEL comparisons against the shared no ligand control are shown as Cummings estimation plots. The individual data points for the fraction of KDEL receptor fluorescence in the Golgi are plotted on the upper axes with sample sizes and p values. Figure 1—source data 1. Source data for the ligand-induced KDELR receptor retrieval assays in Figure 1e. Figure 1—figure supplement 1. […] Endogenous ER chaperone secretion was measured by western blotting after challenge with different retrieval signals, and plotted as a bar graph showing mean ± SEM (n = 3). […] (a) Distribution of human KDELR1 and (b) KDELR2 was measured in COS-7 cells in the absence (-ligand) or presence of K/R/H/A/DDEL retrieval signals (K/R/H/A/DDEL^sec). […] The fraction of KDEL receptor localised to the Golgi was measured before (no ligand) and after challenge with different retrieval signals as indicated. […]
To create KDELR1-GFP and KDELR2-GFP, the reading frames for Homo sapiens KDELR1 (Uniprot: P24390) and KDELR2 (Uniprot: P33947) were cloned into the pEF5/FRT low level mammalian expression vector with a C-terminal 20 amino acid linker made up of 5 copies of Gly-Ser-Ser-Ser followed by GFP. […]

Substance: ADEL [pcDNA3.1 hGHss-mScarlet-H. sapiens BiP639-654K651A (ADEL^SEC), secreted mScarlet fusion with human BiP C-terminus, ADEL signal]
- localisation of the mScarlet ligand (in words) (COS-7 cells): predominantly Golgi and punctate localisation consistent with secretion
- endogenous KDEL receptor redistribution from Golgi to ER (in words) (COS-7 cells expressing mScarlet-xDEL^sec): little effect on the Golgi-ER distribution of the receptor
